Experiment [1] can be described thus: Phospholipid specificity ELISA. Format: binding. The conditions noted are these: phospholipid-coated plates. The protocol: The specificity of the antibodies was determined by ELISA using plates coated with the following phospholipids: PS, phosphatidylserine; PE, phosphatidylethanolamine; PI, phosphatidylinositol; PA, phosphatidic acid; PG, phosphatidylglycerol; PC, phosphatidylcholine; CL, cardiolipin; and SM, sphingomyelin.

Experiment [2] concerns vascular endothelium of MDA-MB-231 breast tumors. Put plainly: Double staining of orthotopic MDA-MB-231 tumors after i.v. biotinylated 9D2 or annexin V. Format: in vivo, mice. To be noted: 1 h. The method, then:
In further studies, mice bearing MDA-MB-231 tumors (0.3-0.7 cm^3 in volume) were injected intravenously with 50 μg of biotinylated 9D2, control IgM or annexin V (six mice per group). Biotinylated reagents were first incubated with streptavidin-Cy3 conjugate, washed in PBS, then incubated with MECA 32 antibody followed by FITC-tagged anti-rat IgG secondary antibody. Single images, taken with appropriate filters for Cy3 (red) and FITC (green) fluorescence respectively, were captured by digital camera and transferred to a computer. […] The same method was used to analyze tumors from mice injected with control rat IgM or saline. The percentage of vessels with localized 9D2 or annexin V was calculated as follows: mean number of yellow vessels per field divided by mean number of green (total) vessels multiplied by 100.
Double staining studies were also performed in which mice bearing orthotopic MDA-MB-231 breast tumors were injected intravenously with biotinylated 9D2 antibody, biotinylated control IgM or biotinylated annexin V. One hour later, the mice were exsanguinated, and their tumors were removed and frozen sections were cut. The tumor sections were then stained with Cy3-conjugated streptavidin to detect the biotinylated proteins and with FITC-conjugated MECA32 to detect vascular endothelium. […]

Experiment [3] has as its system Factor X. Description: Chromogenic assay of coaguligand-induced Factor Xa formation on bEnd.3 cells. Format: cell-based. To be noted: Annexin V 10 μg per ml; cells preincubated with anti-VCAM-1•tTF. The method, then: The ability of Annexin V to affect Factor Xa formation induced by coaguligand was determined by a chromogenic assay. IL-1α-stimulated bEnd.3 cells were incubated with anti-VCAM-•tTF and permeabilized by saponin. Annexin V was added at concentrations ranging from 0.1 to 10 μg/ml and cells were incubated for 30 min. before addition of diluted Proplex T. The amount of Factor Xa generated in the presence or absence of Annexin V was determined. Each treatment was performed in duplicate and repeated at least twice.
Annexin V added to permeabilized cells preincubated with anti-VCAM-1•tTF inhibited the formation of factor Xa in a dose-dependent manner. In the absence of Annexin V, cell-bound coaguligand produced 95 ng of factor Xa per 10,000 cells per 60 min. The addition of increasing amounts of Annexin V (in the μg per ml range) inhibited factor Xa production. At 10 μg per ml, Annexin V inhibited factor Xa production by 58%.

In experiment [4] the test system is anionic phospholipids on vascular endothelium. Description: Localization of 9D2 and annexin V in tumor bearing mice, indirect immunohistochemistry. Format: in vivo. To be noted: 50 μg antibody or 100 μg biotinylated annexin V i.v., 60 min. The method, then:
To detect externally-positioned phospholipids, methods were performed essentially as previously described (Example V; Ran et al., 1998). Tumor-bearing SCID mice were injected intravenously with either 50 μg of 9D2 or biotinylated 9D2 antibody or 100 μg of biotinylated annexin V. Sixty min later mice were sacrificed and their blood circulation was exsanguinated and perfused with heparinized saline as previously described (Burrows et al., 1992). All major organs and tumor were harvested and snap-frozen for preparation of cryosections.
Sections were blocked with PBS containing 10% serum. To prevent loss of phospholipids during slide processing, detergents and organic solvents were omitted from blocking and washing buffers. Rat IgM was detected using goat anti rat IgM (μ specific)-HRP conjugate followed by development with carbazole or DAB (Fries et al., 1993). Biotinylated reagents were detected by streptavidin conjugated to HRP.
Tumor sections derived from mice injected with saline or rat IgM of irrelevant specificity served as negative controls. […] No signal was detected under these conditions. The number of positive vessels per high power field was determined at magnification of ×100. At least 10 fields per section were examined and the average percentage of positive vessels was calculated. […]
Structures with localized 9D2 antibody or annexin V were identified as blood vessels by morphological appearance on DAB-stained sections and by co-incident staining with the pan-endothelial cell marker, MECA 32 on serial sections of frozen tissues. Quantification on DAB-stained sections was done by counting vessels stained by MECA 32, 9D2 or annexin V in serial sections of a tumor. […] At least 10 random fields per section (0.317 mm^2/field) were scored in blinded fashion by two independent observers. The mean numbers and standard errors of vessels stained by 9D2, annexin V or MECA 32 were calculated. The mean number of 9D2 or annexin V-positive vessels determined in each tumor type group was compared to the mean number of MECA 32-positive vessels in the same tumor group. […]

The subject of experiment [5] is blood vessels of L540 Hodgkin tumors. Put plainly: Annexin V inhibition of coaguligand-induced thrombosis in vivo. On the set-up: species or system SCID mice. To be noted: 100 μg Annexin V 2 hours before 40 μg anti-VCAM-1•tTF. The method, then:
The ability of Annexin V to inhibit coaguligand-induced thrombosis in vivo was examined in L540 Hodgkin-bearing SCID mice. Tumors were grown in mice and two mice per group (tumor size 0.5 cm in diameter) were injected intravenously via the tail vein with one of the following reagents: a) saline; b) 100 μg of Annexin V; c) 40 μg of anti-VCAM-1•tTF; d) 100 μg of Annexin V followed 2 hours later by 40 μg of anti-VCAM-1•tTF.
Four hours after the last injection mice were anesthetized and perfused with heparinized saline. Tumors were removed, fixed with 4% formalin, paraffin-embedded and stained with hematoxylene-eosin. The number of thrombosed and non-thrombosed blood vessels was counted and the percentage of thrombosis was calculated.

Experiment [6] can be described thus: ELISA binding to anionic phospholipids in 5 mM EDTA (Ca2+ requirement). The method, then:
The specificity of the 9D2 antibody binding was validated by using control rat IgM of irrelevant specificity (Pharmingen, San Diego, Calif.). The specificity of annexin V binding to phospholipids, which is Ca^2+-dependent, was determined by diluting the reagent in the DPBS containing 5 mM EDTA. Additional negative controls consisted of washing the plates with the binding buffer containing 0.2% of a detergent Tween 20. This treatment extracts lipids, thus removing the phospholipid that was absorbed to plastic. Neither 9D2 antibody nor annexin V bound to detergent-washed plates.
(In general: In an ELISA, binding on a coated surface is turned into a signal by an enzyme label.)

With “Annexin V: natural ligand that binds to anionic phospholipids; commercial biotinylated or recombinant human annexin V”, the “Relative Strength of Reactivity on ELISA” value in experiment [1] was “PS = PE = PI = PA > CL > PG”. In addition, in experiment [2], the “MECA 32 positive vessels that bound the reagent” value is reported as “About 40%”. In addition, the “inhibition of factor Xa production” value in experiment [3] stood at 58%. Moreover, the “positive vessels of MECA 32-stained vessels per field, mean ± SE” value in experiment [4] (B16 tumor) is reported as 21.3 ± 6.6%; in experiment [4] (L540cy tumor), 16.7 ± 3.9%; in experiment [4] (MDA-MB-231 tumor) it was 45.3 ± 5.6%. The “coaguligand-induced intravascular thrombosis and changes in tumor cell morphology” value in experiment [5] is “completely abolished”. For the same substance, the “binding to anionic phospholipids in the presence of 5 mM EDTA” value in experiment [6] was “abolished in the presence of 5 mM EDTA”.

These data come from patent US20040175378A1, “Selected antibody compositions and methods for binding to aminophospholipids” (Board of Regents, The University of Texas System, priority 2002, published 2004).
